# Measurements published in patent US20140349943A1, “TOPICAL FORMULATIONS OF CHEMERIN C15 PEPTIDES FOR THE TREATMENT OF DERMATOLOGICAL CONDITIONS” (priority 2011, published 2014).
# Peptide text beside a SMILES is read from it.
# Legend:
# [1] = tested on: K5.Stat3C recombinant mice; assay: K5.Stat3C mouse model of psoriasis (TPA induced lesions); assay type: in vivo; conditions: expected
# Protocol: In this example, the therapeutic activity of a human chemerin C15 peptide is tested in a mouse model of psoriasis. K5.Stat3C recombinant mice resemble human psoriasis based on clinical, histological, immunophenotypic, and biochemical criteria used to evaluate animal models of psoriasis. The K5.Stat3C mice constitutively express activated […] in keritinocytes and epidermal hyperplasia upon stimulation with 12-0-tetradecanoylphorbol-13-acetate (TPA) topical treatment.
# In an exemplary protocol, mice are treated topically on the ear with TPA (e.g. 3.4 nmol TPA in acetone) or acetone control to induce skin lesions 3 times per week for 4-8 weeks. Real-time PCR in skin samples is used to confirm upregulation of cytokine expression, including IL-23, IL012, TNF-α, IL-β, and/or IL-6. Following induction of skin lesions, formulations comprising the human chemerin C15 peptide or vehicle control are applied topically to the skin lesions daily for 6-12 days. Improvement in the lesions is assessed daily.
# [2] = Stability of C15 in homogenates of frozen and fresh human skin; assay type: in vitro ADME
# Protocol: An initial study was performed comparing stability of human C15 versus Mouse C15. Homogenates of frozen and fresh human skin were prepared to evaluate the degradation of C15 in skin. Frozen or fresh human skin were separately minced and homogenized in 3 ml water and the supernatant isolated. Supernatant was mixed with solutions of mouse or human C15 to yield a 0.5 mg/ml C15 solution. Each solution was incubated at 37° C. and samples were taken at 0, 1, 2 and 24 hours for analysis of C15 (FIG. 3).
# [3] = after 24 hours, 37° C., 0.5 mg/ml
compound,measurement,setting,value
C[C@H](N)C(=O)NCC(=O)N[C@@H](CCC(=O)O)C(=O)N[C@@H](CC(=O)O)C(=O)N1CCC[C@H]1C(=O)N[C@@H](Cc1c[nH]cn1)C(=O)N[C@@H](CO)C(=O)N[C@@H](Cc1ccccc1)C(=O)N[C@@H](Cc1ccc(O)cc1)C(=O)N[C@@H](Cc1ccccc1)C(=O)N1CCC[C@H]1C(=O)NCC(=O)N[C@@H](CCC(N)=O)C(=O)N[C@@H](Cc1ccccc1)C(=O)N[C@@H](C)C(=O)O [C15 (human)] (H-AGEDPHSFYFPGQFA-OH; N-terminus and C-terminus assumed),cytokine expression in the psoriatic lesions,[1]; topical daily for 6-12 days,decreased cytokine expression
same,psoriatic phenotype of the epidermis,[1]; visual inspection and histological examination,improvement in the psoriatic phenotype of the epidermis
same,C15 degradation in homogenate from fresh skin,[2]; [3],98%
same,C15 degradation in homogenate from frozen skin,[2]; [3],25%
same,relative stability in skin homogenate,[2]; human vs mouse C15,more stable than mouse C15
